# Reference: the METLIN SMRT retention time set (Domingo-Almenara et al. 2019)
# Assay: gradient 5% acetonitrile 3 min, to 50% in 2 min, to 85% in 15 min, held 3 min, 100 µL/min
# Conditions: column: Zorbax Extend-C18 2.1 x 50 mm; eluents: water / acetonitrile, 0.1% formic acid
# Outline: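 A Zorbax Extend-C18 column (2.1 × 50 mm, 1.8 μm) run at 100 μL/min with water and acetonitrile, both containing 0.1% formic acid, separated mixtures of ~100 pure standards. The HPLC was coupled to a quadrupole time-of-flight mass spectrometer operated in positive and negative ionization mode, with dead and dwell volumes of 40 μL and 900 μL. Each retention time was taken from a computationally picked adduct peak that was then manually inspected.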
row,RP-LC retention time,Structure (SMILES)
1,715 s,CC1(C(=O)Nc2ccc(F)c(F)c2)CCCCC(=O)N1 (centres undefined)
2,618 s,Cc1cccc(CNC(=O)C2(C)Cn3cnc(C(=O)N4CCOCC4)c3C(=O)N2C2CC2)c1 (centres undefined)
3,1120 s,CCOc1ccc(NS(=O)(=O)c2cc(-c3cc(C(F)(F)F)on3)sc2C)cc1
4,928 s,CCc1ccc(C2=C(C)C(N3CCC(NC(=O)NC(C)(C)C)CC3)=NS2(=O)=O)cc1
5,712 s,CC1CCN(S(=O)(=O)c2ccc(-c3nnc(C(=O)NCCCN4CCCCCC4)o3)cc2)CC1
6,1030 s,CCCCn1cnc2c(-c3ccccc3)cn(CC(=O)Nc3ccccc3)c2c1=O
7,645 s,Cc1cc(OCC(=O)NCc2ccc(Cl)cc2)nc(N2CCCC2)n1
8,765 s,CC(C)n1cnc(S(=O)(=O)N2CCCC(C(=O)Nc3ccc(F)cc3)C2)c1 (centres undefined)
9,957 s,O=C(NCc1csc(-c2cccs2)n1)C1CCN(S(=O)(=O)c2ccc(Cl)s2)CC1
10,833 s,COc1ccc(CNC(=O)c2ccc3c(=O)n(-c4cccc(OC)c4)c(N4CCCC4)nc3c2)cc1
11,966 s,Cc1ccccc1NS(=O)(=O)c1c(C)c(-c2nnc(C3CCC3)o2)n(C)c1C
12,928 s,CCNC(=O)c1csc(N2CCCC(C)C2)n1 (centres undefined)
13,605 s,COc1ccccc1NC(=O)N1CCN(c2cnn3c(C)nnc3c2)CC1
14,606 s,CCOC(=O)N1CCN(C(=O)C2CCCN(c3ccc(-c4ccco4)nn3)C2)CC1 (centres undefined)
15,650 s,NS(=O)(=O)c1ccc(NC(=O)Cc2csc3nc(-c4ccccc4)cn23)cc1
16,725 s,COC(=O)c1cccc(NC(=O)C2CC(=O)N(c3ccccc3)C2)c1 (centres undefined)
17,919 s,CC(C)NC(=O)c1csc(N2CCCCC2)n1
18,773 s,O=C(NC1CCCCC1)C(c1ccc(Cl)cc1)N1CCN(C(=O)c2ccco2)CC1 (centres undefined)
19,975 s,N#Cc1ccc(C(=O)N2CCN(S(=O)(=O)c3cc(-c4noc(C5CCC5)n4)cs3)CC2)cc1
20,896 s,Cc1nc(-c2noc(-c3ccncc3)n2)cn1CC(=O)NC1CCCCC1
21,702 s,COc1cc(NC(=O)[C@@H]2COCC(=O)N2Cc2ccc(OC)cc2OC)cc(OC)c1
22,796 s,CCOc1ccc(NC(=O)N2CCC(C)(C(=O)NCc3ccc(F)cc3)CC2)cc1
23,724 s,COc1ccc(C(=O)NC2CCN(c3cc(-c4cccs4)[nH]n3)C2)c(OC)c1 (centres undefined)
24,910 s,CC(C)c1ccc(C(=O)N2CCCC2COc2ccc(C(=O)NC3CC3)cc2)cc1 (centres undefined)
25,838 s,CC(=O)N1CCc2ccccc2C1C(=O)NCc1ccc(C(F)(F)F)cc1 (centres undefined)

row,RP-LC retention time,Structure (SMILES)
1,884 s,Cc1ccc(C)c(NC(=O)c2cc3c(=O)n(CC(C)C)ccc3n2C)c1
2,760 s,CCN1CCn2cc(S(=O)(=O)NCc3ccccc3C(F)(F)F)cc2C1=O
3,661 s,CC(C)NC(=O)CSC1CCc2ccccc2NC1=O (centres undefined)
4,878 s,CCCN(CC1CCOC1)S(=O)(=O)c1ccc(C)c(F)c1 (centres undefined)
5,755 s,Cc1cc(C(=O)NC2CCCCC2)nn1C
6,965 s,CCc1ccc(CNC(=O)Cn2c(C)cc(-c3nnc(C4CCC4)o3)c2C)cc1
7,820 s,COc1ccc(NC(=O)N2CCc3nc(-c4ccccc4)sc3C2)cc1OC
8,598 s,COc1ccc(CCS(=O)(=O)NCC2CCN(Cc3ccccc3SC)CC2)cc1
9,957 s,CCOC(=O)c1ccc(NC(=O)c2ccc3c(c2)N(CC)C2CCCCN2C3=O)cc1 (centres undefined)
10,608 s,CCNC(=O)Nc1ccc2c(c1)CN(Cc1sccc1C)CCO2
11,708 s,CC(C)C(=O)N1CCc2cc(CNC(=O)c3ccnn3C)ccc21
12,886 s,C=Cc1ccc(Cn2cccc(S(=O)(=O)N3CCCC3)c2=O)cc1
13,924 s,CCCCOc1ccc(CNC(=O)CN2CC=C(c3cnn(-c4ccc(C)c(C)c4)c3)CC2)cc1
14,702 s,Cc1nnc(N2CCCC(C(=O)NCc3cccs3)C2)c2nn(-c3ccccc3)c(C)c12 (centres undefined)
15,921 s,O=C(CN1CCc2ccccc2C1C(=O)N1CCCC1)Nc1cccc(Br)c1 (centres undefined)
16,877 s,COc1ccccc1-c1noc(C2CCCN2C(=O)Nc2ccc(C)cc2)n1 (centres undefined)
17,813 s,Cc1cc2nn(CC(=O)Nc3cccc(Cl)c3)c(=O)n2c(N2CCCC2)n1
18,754 s,O=S(=O)(c1ccccc1)N1CCC(CCOc2ccccc2)C1 (centres undefined)
19,619 s,O=C(Cn1nc2n(c1=O)CCCC2)NCc1ccc2c(c1)OCO2
20,805 s,Cn1c(=O)c(N2CCC(C(=O)NCc3cccs3)CC2)nc2ccccc21
21,850 s,C#CCOCC1CCN(C(=O)CSCc2ccccc2)CC1
22,867 s,O=C(NC1CCCC1)c1cn(-c2ncccc2-c2nc(-c3ccccc3)no2)cn1
23,976 s,Cc1ccc(S(=O)(=O)N(C)C)cc1-c1nnc(-c2ccc(F)cc2)o1
24,751 s,CCC1CN(C(=O)N2CCC(C(=O)N3CCN(C(=O)c4ccco4)CC3)CC2)c2ccccc2O1 (centres undefined)

# Continued, compound first:
row,Structure (SMILES),RP-LC retention time
1,Cn1ncc2c3ccccc3n(CCCC(=O)N3CCc4ccccc4C3)c2c1=O,931 s
2,CN(C)S(=O)(=O)c1ccc(-c2nc3ccccc3s2)cc1,578 s
3,CCN1C(=O)COc2ccc(-c3noc(/C=C/c4ccc(C)cc4)n3)cc21,1230 s
4,Cc1ccc(Cn2cc(-c3ccncc3)cc2C(=O)NCc2cccnc2)cc1,581 s
5,COc1ccc(-n2ccc(=O)c(-c3nc(-c4ccccc4OC)no3)n2)cc1,776 s
6,CCc1cc(C(=O)Nc2ccc(OC)c(OC)c2)nc2cc(-c3ccco3)nn12,1030 s
7,O=C(CCc1csc(NC(=O)c2ccc(=O)[nH]c2)n1)NCc1ccccn1,542 s
8,COC[C@@H]1CN(C(=O)c2cc3cc(Cl)ccc3[nH]2)C[C@H]1C(N)=O,672 s
9,CCNc1cc(N2CCC(CCC(=O)N3CCC(COC)CC3)CC2)ncn1,631 s
10,CCC1(O)CCC12CCN(C(=O)c1cccs1)CC2 (centres undefined),718 s
11,CN(CC1CCOC1)C(=O)Nc1cc(F)cc(F)c1 (centres undefined),744 s
12,COc1ccccc1CNC(=O)C(=O)NCc1ccsc1,796 s
13,Cc1ccc2c(c1)OCC(=O)N2Cc1nc(-c2ccc(Br)cc2)no1,1180 s
14,CCOc1ccc(C2Cn3nnc(-c4nc(-c5ccc(C)cc5)no4)c3CO2)cc1 (centres undefined),1250 s
15,Cn1nccc1C(=O)NCc1ccc(-c2nc(-c3cccs3)no2)s1,858 s
16,COc1cccc(-n2ccc(=O)c(-c3nc(-c4ccc(F)cc4)no3)n2)c1,898 s
17,CCOc1ccc(-c2nc(C3CC(=O)N(c4ccc(F)c(Cl)c4)C3)no2)cc1 (centres undefined),1170 s
18,CN(C(=O)Cn1nc(Cc2cccnc2)c2ccccc2c1=O)c1ccc(Br)cc1,679 s
19,COc1ccc(CCc2nc(C3CC(=O)N(c4ccc(Cl)cc4)C3)no2)cc1 (centres undefined),1050 s
20,Fc1ccc(-c2nnc(Cc3nc(Cc4ccccc4)no3)o2)cc1,931 s

row,Structure (SMILES),RP-LC retention time
1,COc1ccc(N2CC(c3noc(-c4ccc(OC(F)(F)F)cc4)n3)CC2=O)cc1 (centres undefined),1070 s
2,CCOc1ccc(CNC(=O)c2cc3c(-c4cccs4)nn(-c4ccccc4)c3n2CC)cc1,1240 s
3,CCc1nn2c(CNC(=O)c3ccccc3Br)c(C)nc2s1,636 s
4,CCOCC(=O)Nc1cccc(OCc2nnc(-c3ccc(OC)cc3)o2)c1,830 s
5,Cc1cc2n(n1)CCCN2C(=O)CCC(=O)N1CCN(Cc2ccc3c(c2)OCO3)CC1,577 s
6,COCCn1c(SCc2nc(-c3cccc(F)c3)no2)nc2cc3c(cc2c1=O)OCO3,1090 s
7,Cc1cccc(-n2c(=O)c3sccc3n(Cc3nc(-c4cccc(Br)c4)no3)c2=O)c1,1130 s
8,O=C(CCc1c(-c2ccc(F)cc2)nc2ccccn12)N1CCC2(CC1)OCCO2,615 s
9,CCNc1cc(N2CCCC(CCC(=O)NCCN3CCN(C)CC3)C2)ncn1 (centres undefined),541 s
10,COc1cc(C(=O)NCCc2c[nH]c3ccc(F)cc23)cc(OC)c1OC,781 s
11,N#Cc1cccc(NS(=O)(=O)c2cccc(-c3nc(-c4ccccc4)no3)c2)c1,1080 s
12,COC(=O)c1cc2c(=O)n(-c3cccc(Cl)c3Cl)ccc2nc1C,915 s
13,COc1cc(NC(=O)c2sc(-n3cccc3)nc2C(C)C)cc(OC)c1,1210 s
14,CN(CC1CCOC1)C(=O)Nc1cc(F)c(F)c(F)c1 (centres undefined),764 s
15,O=S(=O)(NCc1ccco1)c1cc(-c2nnc(-c3ccccc3)o2)ccc1F,902 s
16,CC1=NS(=O)(=O)N(Cc2ccccc2)C=C1C(=O)OCc1noc(-c2cccc(C)c2)n1,1180 s
17,CC1OC(O[C@@H]2C=C3CC[C@@H]4[C@H](CC[C@]5(C)[C@@H](c6ccc(=O)oc6)CC[C@]45O)[C@@]3(C)CC2)C(O)C(O)C1O (some centres undefined),691 s
18,CCn1cc(-c2nc(C(=O)NCc3ccccc3F)cs2)c2cccnc21,987 s
19,COC(=O)c1nc(NC(=O)Cn2nc3c(cc2=O)CCCC3)sc1CC(C)C,855 s
20,Cn1nccc1-c1cccc(-c2noc(CNS(=O)(=O)c3ccc(Cl)cc3)n2)c1,902 s
